As usually defined, the EC50 is the concentration needed to bring the measured effect to its halfway point.

Data on one compound can be found in ChEMBL document CHEMBL5252552, “Defined concatenated α6α1β3γ2 GABAA receptor constructs reveal dual action of pyrazoloquinolinone allosteric modulators” (Bioorg Med Chem, 2019).

Assay [1] has as its target T1, Gamma-aminobutyric acid receptor subunit alpha-6/beta-3/gamma-2 (Rattus norvegicus, UniProt P18508+P30191+P63079). Put plainly: Positive allosteric modulation of rat recombinant GABAA alpha6beta3alpha6-gamma2beta3 receptor expressed in Xenopus laevis oocytes assessed as increase in GABA-induced current amplitude at -80 mV holding potential under more potent phase in presence of GABA EC1 to 1.5 by two-electrode voltage-clamp assay. The class given is cell-based, Oocyte.

In assay [2] the target is T2, Gamma-aminobutyric acid receptor subunit alpha-6/beta-3/gamma-2 (Rattus norvegicus) (UniProt P18508+P30191+P63079). Put plainly: Positive allosteric modulation of rat recombinant GABAA alpha6beta3alpha6-gamma2beta3 receptor expressed in Xenopus laevis oocytes assessed as maximal current at -80 mV holding potential under more potent phase in presence of GABA EC1 to 1.5 by two-electrode voltage-clamp assay relative to control. The class given is cell-based. Conditions: Oocyte, filed as positive allosteric modulator. (In general: Two-electrode voltage clamp holds a large cell at a set potential and records current.)

The target of assay [3] is T3, Gamma-aminobutyric acid receptor subunit alpha-1/alpha-6/beta-3/gamma-2 (Rattus norvegicus, UniProt P18508+P30191+P62813+P63079). Briefly: Positive allosteric modulation of rat recombinant GABAA gamma2beta3alpha1-beta3alpha6 receptor expressed in Xenopus laevis oocytes assessed as increase in GABA-induced current amplitude at -80 mV holding potential under more potent phase in presence of GABA EC1 to 1.5 by two-electrode voltage-clamp assay. The class given is cell-based, Oocyte.

Assay [4] concerns the target T1, Gamma-aminobutyric acid receptor subunit alpha-6/beta-3/gamma-2. Briefly: Positive allosteric modulation of rat recombinant GABAA alpha6beta3gamma2 receptor expressed in Xenopus laevis oocytes assessed as increase in GABA-induced current amplitude at -80 mV holding potential under less potent phase in presence of GABA EC1 to 1.5 by two-electrode voltage-clamp assay. In kind it is cell-based, Oocyte.

The target of assay [5] is T2, Gamma-aminobutyric acid receptor subunit alpha-6/beta-3/gamma-2 (Rattus norvegicus). Put plainly: Positive allosteric modulation of rat recombinant GABAA alpha6beta3gamma2 receptor expressed in Xenopus laevis oocytes assessed as maximal current at -80 mV holding potential under more potent phase in presence of GABA EC1 to 1.5 by two-electrode voltage-clamp assay relative to control. Conditions: Oocyte, filed as positive allosteric modulator. The class given is cell-based.

The target of assay [6] is T4, Gamma-aminobutyric acid receptor subunit alpha-1/beta-3/gamma-2 (Rattus norvegicus) (UniProt P18508+P62813+P63079). Briefly: Positive allosteric modulation of rat recombinant GABAA alpha1beta3gamma2 receptor expressed in Xenopus laevis oocytes assessed as maximal current at -80 mV holding potential under less potent phase in presence of GABA EC1 to 1.5 by two-electrode voltage-clamp assay relative to control. The class given is cell-based. As to conditions: Oocyte, filed as positive allosteric modulator.

Assay [7] deals with T3, Gamma-aminobutyric acid receptor subunit alpha-1/alpha-6/beta-3/gamma-2. Put plainly: Positive allosteric modulation of rat recombinant GABAA alpha6beta3alpha1-gamma2beta3 receptor expressed in Xenopus laevis oocytes assessed as increase in GABA-induced current amplitude at -80 mV holding potential under less potent phase in presence of GABA EC1 to 1.5 by two-electrode voltage-clamp assay. The class given is cell-based, Oocyte.

For assay [8], the target named is T2, Gamma-aminobutyric acid receptor subunit alpha-6/beta-3/gamma-2 (Rattus norvegicus). Put plainly: Positive allosteric modulation of rat recombinant GABAA alpha6beta3alpha6-gamma2beta3 receptor expressed in Xenopus laevis oocytes assessed as maximal efficacy at -80 mV holding potential at 3 nM in presence of GABA EC1 to 1.5 by two-electrode voltage-clamp assay. The class given is cell-based. Conditions: Oocyte.

The target is the same in assay [9]. Briefly: Positive allosteric modulation of rat recombinant GABAA alpha6beta3alpha6-gamma2beta3 receptor expressed in Xenopus laevis oocytes assessed as maximal efficacy at -80 mV holding potential at 300 nM in presence of GABA EC1 to 1.5 by two-electrode voltage-clamp assay. As to conditions: Oocyte, filed as positive allosteric modulator. In kind it is cell-based.

Assay [10] has the same target. Put plainly: Positive allosteric modulation of rat recombinant GABAA alpha6beta3alpha6-gamma2beta3 receptor expressed in Xenopus laevis oocytes assessed as maximal efficacy at -80 mV holding potential at 10 uM in presence of GABA EC1 to 1.5 by two-electrode voltage-clamp assay. As to conditions: Oocyte, filed as positive allosteric modulator. The class given is cell-based.

Assay [11] has as its target T4, Gamma-aminobutyric acid receptor subunit alpha-1/beta-3/gamma-2 (Rattus norvegicus). Put plainly: Positive allosteric modulation of rat recombinant GABAA alpha1beta3alpha1-gamma2beta3 receptor expressed in Xenopus laevis oocytes assessed as maximal efficacy at -80 mV holding potential at 30 nM in presence of GABA EC1 to 1.5 by two-electrode voltage-clamp assay. The class given is cell-based. As to conditions: Oocyte.

The target is the same in assay [12]. Briefly: Positive allosteric modulation of rat recombinant GABAA alpha1beta3gamma2 receptor expressed in Xenopus laevis oocytes assessed as maximal efficacy at -80 mV holding potential at 100 nM in presence of GABA EC1 to 1.5 by two-electrode voltage-clamp assay. In kind it is cell-based. As to conditions: Oocyte.
Assay [13] shares this target. Put plainly: Positive allosteric modulation of rat recombinant GABAA alpha1beta3gamma2 receptor expressed in Xenopus laevis oocytes assessed as maximal efficacy at -80 mV holding potential at 10 uM in presence of GABA EC1 to 1.5 by two-electrode voltage-clamp assay. The class given is cell-based. Conditions: Oocyte, filed as positive allosteric modulator.
Assay [14] has as its target T5, Gamma-aminobutyric acid receptor subunit alpha-1/alpha-6/beta-3/gamma-2 (Rattus norvegicus) (UniProt P18508+P30191+P62813+P63079). Briefly: Positive allosteric modulation of rat recombinant GABAA gamma2beta3alpha1-beta3alpha6 receptor expressed in Xenopus laevis oocytes assessed as maximal efficacy at -80 mV holding potential at 3 nM in presence of GABA EC1 to 1.5 by two-electrode voltage-clamp assay. In kind it is cell-based. As to conditions: Oocyte.

Assay [15] deals with T5, Gamma-aminobutyric acid receptor subunit alpha-1/alpha-6/beta-3/gamma-2 (Rattus norvegicus). Put plainly: Positive allosteric modulation of rat recombinant GABAA gamma2beta3alpha1-beta3alpha6 receptor expressed in Xenopus laevis oocytes assessed as maximal efficacy at -80 mV holding potential at 300 nM in presence of GABA EC1 to 1.5 by two-electrode voltage-clamp assay. As to conditions: Oocyte, filed as positive allosteric modulator. The class given is cell-based.

Assay [16] shares this target. Briefly: Positive allosteric modulation of rat recombinant GABAA gamma2beta3alpha1-beta3alpha6 receptor expressed in Xenopus laevis oocytes assessed as maximal efficacy at -80 mV holding potential at 1 uM in presence of GABA EC1 to 1.5 by two-electrode voltage-clamp assay. In kind it is cell-based. Conditions: Oocyte, filed as positive allosteric modulator.
For assay [17] the target is unchanged. Put plainly: Positive allosteric modulation of rat recombinant GABAA gamma2beta3alpha1-beta3alpha6 receptor expressed in Xenopus laevis oocytes assessed as maximal efficacy at -80 mV holding potential at 10 uM in presence of GABA EC1 to 1.5 by two-electrode voltage-clamp assay. The class given is cell-based. As to conditions: Oocyte, filed as positive allosteric modulator.

For assay [18], the target named is T2, Gamma-aminobutyric acid receptor subunit alpha-6/beta-3/gamma-2 (Rattus norvegicus). Briefly: Positive allosteric modulation of rat recombinant GABAA alpha6beta3gamma2 receptor expressed in Xenopus laevis oocytes assessed as maximal efficacy at -80 mV holding potential at 3 nM in presence of GABA EC1 to 1.5 by two-electrode voltage-clamp assay. As to conditions: Oocyte. In kind it is cell-based.

The target is the same in assay [19]. Put plainly: Positive allosteric modulation of rat recombinant GABAA alpha6beta3gamma2 receptor expressed in Xenopus laevis oocytes assessed as maximal efficacy at -80 mV holding potential at 30 nM in presence of GABA EC1 to 1.5 by two-electrode voltage-clamp assay. As to conditions: Oocyte, filed as positive allosteric modulator. The class given is cell-based.

Assay [20] has the same target. Briefly: Positive allosteric modulation of rat recombinant GABAA alpha6beta3gamma2 receptor expressed in Xenopus laevis oocytes assessed as maximal efficacy at -80 mV holding potential at 100 nM in presence of GABA EC1 to 1.5 by two-electrode voltage-clamp assay. In kind it is cell-based. As to conditions: Oocyte, filed as positive allosteric modulator.
The target in assay [21] is T5, Gamma-aminobutyric acid receptor subunit alpha-1/alpha-6/beta-3/gamma-2 (Rattus norvegicus). Briefly: Positive allosteric modulation of rat recombinant GABAA alpha6beta3alpha1-gamma2beta3 receptor expressed in Xenopus laevis oocytes assessed as maximal efficacy at -80 mV holding potential at 100 nM in presence of GABA EC1 to 1.5 by two-electrode voltage-clamp assay. Conditions: Oocyte. In kind it is cell-based.

Assay [22] shares this target. Put plainly: Positive allosteric modulation of rat recombinant GABAA alpha6beta3alpha1-gamma2beta3 receptor expressed in Xenopus laevis oocytes assessed as maximal efficacy at -80 mV holding potential at 10 uM in presence of GABA EC1 to 1.5 by two-electrode voltage-clamp assay. The class given is cell-based. As to conditions: Oocyte, filed as positive allosteric modulator.

T3 sequence (P18508 whole entry): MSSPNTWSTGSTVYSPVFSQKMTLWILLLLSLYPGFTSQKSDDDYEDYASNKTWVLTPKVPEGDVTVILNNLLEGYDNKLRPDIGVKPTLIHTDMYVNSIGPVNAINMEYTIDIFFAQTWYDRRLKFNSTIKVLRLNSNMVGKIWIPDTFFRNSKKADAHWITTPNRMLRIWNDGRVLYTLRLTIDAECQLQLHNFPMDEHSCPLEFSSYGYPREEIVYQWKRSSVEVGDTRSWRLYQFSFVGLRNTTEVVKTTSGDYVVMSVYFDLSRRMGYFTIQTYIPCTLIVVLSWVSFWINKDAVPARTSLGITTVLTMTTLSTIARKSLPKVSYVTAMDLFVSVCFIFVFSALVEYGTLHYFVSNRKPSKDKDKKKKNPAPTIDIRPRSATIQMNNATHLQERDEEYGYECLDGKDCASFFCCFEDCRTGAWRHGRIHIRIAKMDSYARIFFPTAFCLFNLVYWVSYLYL
T3 sequence (P30191 whole entry): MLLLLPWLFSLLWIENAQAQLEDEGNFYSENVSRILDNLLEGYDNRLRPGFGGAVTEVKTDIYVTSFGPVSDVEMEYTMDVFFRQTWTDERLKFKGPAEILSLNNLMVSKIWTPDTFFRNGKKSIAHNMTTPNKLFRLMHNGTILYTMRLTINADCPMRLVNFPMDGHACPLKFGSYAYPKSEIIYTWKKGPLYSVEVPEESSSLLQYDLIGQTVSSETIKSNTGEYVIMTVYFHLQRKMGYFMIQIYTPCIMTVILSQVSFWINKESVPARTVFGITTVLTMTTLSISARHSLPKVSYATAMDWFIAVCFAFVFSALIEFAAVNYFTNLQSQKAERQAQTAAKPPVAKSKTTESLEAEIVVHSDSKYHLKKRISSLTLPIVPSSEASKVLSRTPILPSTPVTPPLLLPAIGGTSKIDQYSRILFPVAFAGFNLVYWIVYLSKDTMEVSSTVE
T3 sequence (P62813 whole entry): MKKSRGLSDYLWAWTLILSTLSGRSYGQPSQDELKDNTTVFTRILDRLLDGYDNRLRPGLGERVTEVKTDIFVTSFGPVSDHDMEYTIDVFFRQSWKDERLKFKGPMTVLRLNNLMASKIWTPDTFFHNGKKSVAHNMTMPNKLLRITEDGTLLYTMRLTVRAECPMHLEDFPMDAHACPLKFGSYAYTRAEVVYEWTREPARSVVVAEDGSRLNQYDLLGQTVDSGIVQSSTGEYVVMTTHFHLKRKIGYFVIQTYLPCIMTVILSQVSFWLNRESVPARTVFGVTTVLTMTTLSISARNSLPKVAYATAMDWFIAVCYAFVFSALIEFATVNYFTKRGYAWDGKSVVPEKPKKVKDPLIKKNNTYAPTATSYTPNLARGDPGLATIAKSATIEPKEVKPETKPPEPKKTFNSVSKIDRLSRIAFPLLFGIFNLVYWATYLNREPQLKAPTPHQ
T3 sequence (P63079 whole entry): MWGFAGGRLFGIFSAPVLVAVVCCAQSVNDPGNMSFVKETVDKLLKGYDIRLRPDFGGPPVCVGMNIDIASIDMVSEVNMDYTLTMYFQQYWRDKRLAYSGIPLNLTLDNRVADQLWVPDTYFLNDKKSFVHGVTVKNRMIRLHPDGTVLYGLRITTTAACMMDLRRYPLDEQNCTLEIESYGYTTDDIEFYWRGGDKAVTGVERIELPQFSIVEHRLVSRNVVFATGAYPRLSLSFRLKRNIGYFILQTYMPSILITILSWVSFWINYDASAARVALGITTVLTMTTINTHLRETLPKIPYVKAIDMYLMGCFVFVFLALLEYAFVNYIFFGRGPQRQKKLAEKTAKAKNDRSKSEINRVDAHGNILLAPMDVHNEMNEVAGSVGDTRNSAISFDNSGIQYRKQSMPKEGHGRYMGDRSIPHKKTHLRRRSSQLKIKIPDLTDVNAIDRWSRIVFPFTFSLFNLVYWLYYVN
T1 sequence (P18508 whole entry): as the sequence (P18508 whole entry) above
T1 sequence (P30191 whole entry): as the sequence (P30191 whole entry) above
T1 sequence (P63079 whole entry): as the sequence (P63079 whole entry) above

Turning to `COc1ccc(-n2nc3c4ccc(Br)cc4[nH]cc-3c2=O)cc1`, the EC50 worked out at 0.009 µM in assay [1], 0.004 µM in assay [3], 11 µM in assay [4] and 7 µM in assay [7]. In addition, the %max in assay [2] was 82%; in [5] it was 70%; in [6] it was 132%. Further, the Efficacy in assay [8] came to 19%; in assay [9], 124%; in assay [10], 621%; in [11], 5%; in [12] it was 5%; in [13], 84%. In addition, the Efficacy in assay [14] is 16%; in assay [15] it was 48%; in assay [16], 80%; in assay [17], 186%; in assay [18] it was 23%; in [19] it was 49%. In addition, the Efficacy came to 46% in [20], 18% in assay [21] and 662% in [22].
